US12312359B2 (Vitae Pharmaceuticals, LLC, priority 2016, dated 2025)

Assays:
[1] = test system: human acute monocytic leukemia cell line MV-4-11; experiment: Assay 2: cell proliferation assay (ATP quantitation, CellTiter-Glo), MV-4-11; type: cell-based; conditions: Homo sapiens, MV4-11, 72 h, MV-4-11 cells
How it was run: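 MV-4-11 cells, 1.67×10^4 per well in medium with 10% FBS, were exposed to compound for 72 h at 37° C., 5% CO2; HL-60 cells served as toxicity control. Proliferation read as ATP content by CellTiter-Glo luminescence.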

[2] = molecular target: T1, biotinylated wild-type menin and MLL-AF9 fusion protein (menin/MLL binding) (Homo sapiens, UniProt O00255); experiment: Assay 1: menin/MLL binding AlphaLISA assay, wild-type menin; conditions: Table 30; column head does not say wild-type or mutated menin
T1 construct: made in house; host or cells: menin: E. coli; MLL-AF9-FLAG: HEK293 cells, used as cleared lysate
T1 sequence (O00255 1-610): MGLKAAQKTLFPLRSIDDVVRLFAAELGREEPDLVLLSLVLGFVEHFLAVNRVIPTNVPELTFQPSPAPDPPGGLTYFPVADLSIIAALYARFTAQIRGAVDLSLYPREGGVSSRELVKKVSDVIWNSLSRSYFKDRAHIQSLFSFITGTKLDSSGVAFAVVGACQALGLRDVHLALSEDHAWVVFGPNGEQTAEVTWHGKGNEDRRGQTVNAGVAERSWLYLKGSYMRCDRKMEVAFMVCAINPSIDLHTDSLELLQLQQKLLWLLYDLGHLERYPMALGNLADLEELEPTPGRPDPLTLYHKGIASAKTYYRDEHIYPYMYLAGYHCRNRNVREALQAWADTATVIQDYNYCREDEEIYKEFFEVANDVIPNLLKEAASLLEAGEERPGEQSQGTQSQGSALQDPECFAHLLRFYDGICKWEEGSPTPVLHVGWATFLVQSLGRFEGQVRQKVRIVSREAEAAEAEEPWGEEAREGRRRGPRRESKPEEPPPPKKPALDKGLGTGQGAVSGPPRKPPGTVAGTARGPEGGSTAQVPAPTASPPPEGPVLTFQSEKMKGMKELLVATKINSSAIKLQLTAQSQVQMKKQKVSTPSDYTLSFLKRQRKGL
How it was run: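 Compound was preincubated 30 min at room temperature with biotinylated menin (5 nM) and MLL-AF9-FLAG lysate from HEK293 cells, pH 7.4 buffer with 5% DMSO and DTT. Bead-based Alpha signal after 60 min with streptavidin donor and anti-FLAG acceptor beads; four-parameter logistic fit gave IC50.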

| Structure (SMILES) | EC50 [1] [nM] | IC50 [2] [nM] |
| --- | --- | --- |
| C=C(C)c1ccccc1-c1cc(F)ccc1Oc1cncnc1N1CCC2(CCN(Cc3ccc4[nH]c(=O)[nH]c4c3)C2)C1 (stereo not drawn) [Example 161, 5-((7-(5-((5-fluoro-2′-(prop-1-en-2-yl)-[1,1′-biphenyl]-2-yl)oxy)pyrimidin-4-yl)-2,7-diazaspiro[4.4]nonan-2-yl)methyl)-1,3-dihydro-2H-benzo[d]imidazol-2-one] | < 100 | < 100 |
| CC(C)N(C(=O)c1cc(F)ccc1Oc1cncnc1N1CCC2(CCN(Cc3ccc4[nH]c(=O)[nH]c4c3)C2)C1)C(C)C (single isomer, unassigned) [Example 1A, 5-fluoro-N,N-diisopropyl-2-((4-(7-((2-oxo-2,3-dihydro-1H-benzo[d]imidazol-5-yl)methyl)-2,7-diazaspiro[4.4]nonan-2-yl)pyrimidin-5-yl)oxy)benzamide] | < 100 | < 100 |
| CC(C)N(C(=O)c1cc(F)ccc1Oc1cncnc1N1CC2(CCN(C3CCc4cc(C#N)ccc4C3)C2)C1)C(C)C (stereo not drawn) [Example 104, 2-((4-(6-(6-cyano-1,2,3,4-tetrahydro-naphthalen-2-yl)-2,6-diazaspiro[3.4]octan-2-yl)pyrimidin-5-yl)oxy)-5-fluoro-N,N-diisopropyl-benzamide] | < 100 | < 100 |
| O=C(O)c1ccc(-c2cc(F)ccc2Oc2cncnc2N2CCC3(CCN(Cc4ccc5[nH]c(=O)[nH]c5c4)C3)C2)c(C2CC2)c1 (stereo not drawn) [Example 44, 2-cyclopropyl-5′-fluoro-2′-((4-(7-((2-oxo-2,3-dihydro-1H-benzo[d]imidazol-5-yl)methyl)-2,7-diazaspiro[4.4]nonan-2-yl)pyrimidin-5-yl)oxy)-[1,1′-biphenyl]-4-carboxylic acid] | 100 to 1000 | < 100 |
| CC1(C)C(=O)Nc2cc(CN3CCC4(CCN(c5ncncc5Oc5ccc(F)cc5-c5cccnc5C5CC5)C4)C3)ccc21 (stereo not drawn) [Example 179, 6-((7-(5-(2-(2-cyclopropylpyridin-3-yl)-4-fluorophenoxy)pyrimidin-4-yl)-2,7-diazaspiro[4.4]nonan-2-yl)methyl)-3,3-dimethylindolin-2-one] | < 100 | < 100 |
| COc1ccc(CC(=O)N2CC3(C2)CN(c2ncncc2Oc2ccc(F)cc2-c2cncnc2C(C)C)C3)cn1 [Example 132, 1-(6-(5-(4-fluoro-2-(4-isopropylpyrimidin-5-yl)phenoxy)pyrimidin-4-yl)-2,6-diazaspiro[3.3]heptan-2-yl)-2-(6-methoxypyridin-3-yl)ethan-1-one] | 100 to 1000 | < 100 |
| CC(C)c1ccccc1-c1cc(F)ccc1Oc1cnccc1N1CCC2(CCN(Cc3ccc4[nH]c(=O)[nH]c4c3)C2)C1 (stereo not drawn) [Example 249, 5-((7-(3-((5-fluoro-2′-isopropyl-[1,1′-biphenyl]-2-yl)oxy)pyridin-4-yl)-2,7-diazaspiro[4.4]nonan-2-yl)methyl)-1,3-dihydro-2H-benzo[d]imidazol-2-one] | 100 to 1000 | < 100 |
| CC(C)N(C)C(=O)c1cc(F)ccc1Oc1cncnc1N1CC2(CCN(C[C@H]3CC[C@H](NS(C)(=O)=O)CC3)CC2)C1 [Example 93, 5-fluoro-N-isopropyl-N-methyl-2-((4-(7-(((1r,4r)-4-(methylsulfonamido)cyclohexyl)methyl)-2,7-diazaspiro [3.5]nonan-2-yl)pyrimidin-5-yl)oxy)benzamide] | 100 to 1000 | < 100 |
| Cn1c(-c2cc(F)ccc2Oc2cncnc2N2CC3(CCN(C[C@H]4CC[C@H](NC(=O)C(F)(F)F)CC4)CC3)C2)c(C2CC2)ccc1=O [Example 79, N-((1r,4r)-4-((2-(5-(2-(3-cyclopropyl-1-methyl-6-oxo-1,6-dihydropyridin-2-yl)-4-fluorophenoxy)pyrimidin-4-yl)-2,7-diazaspiro[3.5]nonan-7-yl)methyl)cyclohexyl)-2,2,2-trifluoroacetamide] | < 100 | < 100 |
| CC(C)(O)CCc1cc(F)ccc1Oc1cncnc1N1CCC2(CCN(Cc3ccc4[nH]c(=O)[nH]c4c3)C2)C1 (stereo not drawn) [Example 36, 5-((7-(5-(4-fluoro-2-(3-hydroxy-3-methylbutyl)phenoxy)pyrimidin-4-yl)-2,7-diazaspiro[4.4]nonan-2-yl)methyl)-1H-benzo[d]imidazol-2(3H)-one] | 100 to 1000 | < 100 |
| CC(C)N(C(=O)c1cc(F)ccc1Oc1cncnc1N1CC2(CCN(CC3CCC(O)CC3)CC2)C1)C(C)C (stereo not drawn) [Example 98, 5-fluoro-2-((4-(7-((4-hydroxycyclohexyl)methyl)-2,7-diazaspiro[3.5]nonan-2-yl)pyrimidin-5-yl)oxy)-N,N-diisopropylbenzamide] | 100 to 1000 | < 100 |
| CC(C)N(C)S(=O)(=O)c1cc(F)ccc1Oc1cncnc1N1CCC2(CCN(Cc3ccc4[nH]c(=O)[nH]c4c3)C2)C1 (stereo not drawn) [Example 222, 5-fluoro-N-isopropyl-N-methyl-2-((4-(7-((2-oxo-2,3-dihydro-1H-benzo[d]imidazol-5-yl)methyl)-2,7-diazaspiro[4.4]nonan-2-yl)pyrimidin-5-yl)oxy)benzenesulfon-amide] | ≥ 1000 | < 100 |
| NS(=O)(=O)c1ccc2c(c1)CC(C(=O)N1CC3(C1)CN(c1ncncc1Oc1ccc(F)cc1Cl)C3)C2 (stereo not drawn) [Example 40, 2-(6-(5-(2-chloro-4-fluorophenoxy)pyrimidin-4-yl)-2,6-diazaspiro[3.3]heptane-2-carbonyl)-2,3-dihydro-1H-indene-5-sulfonamide] | ≥ 1000 | 100 to 1000 |
| CC(C)N(C)C(=O)c1cc(F)ccc1Oc1cncnc1N1CCC2(CCN(Cc3ccc4c(c3)NC(=O)C4(C)C)C2)C1 (stereo not drawn) [Example 202, 2-((4-(7-((3,3-dimethyl-2-oxoindolin-6-yl)methyl)-2,7-diazaspiro[4.4]nonan-2-yl)pyrimidin-5-yl)oxy)-5-fluoro-N-isopropyl-N-methylbenzamide] | 100 to 1000 | < 100 |
| CC(C)c1ncncc1-c1cc(F)ccc1Oc1cncnc1N1CCC2(CCN(Cc3ccc4c(c3)[nH]c(=O)n4C)C2)C1 (stereo not drawn) [Example 150, 5-((7-(5-(4-fluoro-2-(4-isopropylpyrimidin-5-yl)phenoxy)pyrimidin-4-yl)-2,7-diazaspiro[4.4]nonan-2-yl)methyl)-1-methyl-1,3-dihydro-2H-benzo[d]imidazol-2-one] | < 100 | < 100 |
| CC(O)c1ccccc1-c1cc(F)ccc1Oc1cncnc1N1CCC2(CCN(Cc3ccc4[nH]c(=O)[nH]c4c3)C2)C1 (single isomer, unassigned) [Example 60A, 5-((7-(5-((5-fluoro-2′-(1-hydroxyethyl)-[1,1′-biphenyl]-2-yl)oxy)pyrimidin-4-yl)-2,7-diazaspiro[4.4]nonan-2-yl)methyl)-1H-benzo[d]imidazol-2(3H)-one] | < 100 | < 100 |
| CC(C)c1ncsc1-c1cc(F)ccc1Oc1cncnc1N1CCC2(CCN(Cc3ccc4[nH]c(=O)[nH]c4c3)C2)C1 (stereo not drawn) [Example 224, 5-((7-(5-(4-fluoro-2-(4-isopropylthiazol-5-yl)phenoxy)pyrimidin-4-yl)-2,7-diazaspiro[4.4]nonan-2-yl)methyl)-1,3-dihydro-2H-benzo[d]imidazol-2-one] | < 100 | < 100 |
| CC(C)C(=O)N(CC(F)(F)F)c1cc(F)ccc1Oc1cncnc1N1CCC2(CCN(Cc3ccc4[nH]c(=O)[nH]c4c3)C2)C1 (stereo not drawn) [Example 187, N-(5-fluoro-2-((4-(7-((2-oxo-2,3-dihydro-1H-benzo[d]imidazol-5-yl)methyl)-2,7-diazaspiro[4.4]nonan-2-yl)pyrimidin-5-yl)oxy)phenyl)-N-(2,2,2-trifluoroethyl)iso-butyramide] | < 100 | < 100 |
| CC(C)n1nc(C(F)(F)F)cc1-c1cc(F)ccc1Oc1cncnc1N1CC2(CN(CC3(O)CCCCC3)C2)C1 [Example 72, 1-((6-(5-(4-fluoro-2-(1-isopropyl-3-(trifluoromethyl)-1H-pyrazol-5-yl)phenoxy)pyrimidin-4-yl)-2,6-diazaspiro[3.3]heptan-2-yl)methyl)cyclohexan-1-ol] | 100 to 1000 | < 100 |
| CC(C)c1ccccc1-c1cc(F)ccc1Oc1cncnc1N1CC2(CC(NCc3ccc(C#N)cc3)CO2)C1 (stereo not drawn) [Example 19, 4-(((2-(5-((5-fluoro-2′-isopropyl-[1,1′-biphenyl]-2-yl)oxy)pyrimidin-4-yl)-5-oxa-2-azaspiro[3.4]octan-7-yl)amino)methyl)benzonitrile] | 100 to 1000 | < 100 |
| CC(C)N(C)C(=O)c1cc(F)ccc1Oc1cncnc1N1CCC2(CCN(Cc3ccc4c(c3)[nH]c(=O)n4C)C2)C1 (stereo not drawn) [Example 163, 5-fluoro-N-isopropyl-N-methyl-2-((4-(7-((1-methyl-2-oxo-2,3-dihydro-1H-benzo[d]imidazol-5-yl)methyl)-2,7-diazaspiro[4.4]nonan-2-yl)pyrimidin-5-yl)oxy)benzamide] | 100 to 1000 | < 100 |
